Laboratory results reported in US11339130B1 (Blade Therapeutics, Inc., priority 2016, dated 2022).

Tested on: Bleomycin-induced pulmonary fibrosis
Assay: Bleomycin-induced pulmonary fibrosis in mice (14 d)
Assay type: in vivo
Set-up: concentration or dose not given beside the values
Description: The method for inducing pulmonary fibrosis in mice is described in Current Protocols in Pharmacology: 5.46.1, entitled “Mouse Models of Bleomycin-induced Pulmonary Fibrosis”. In order to induce pulmonary fibrosis, 6-8 week old C57B1/6 mice or Wistar rats are instilled once oropharyngeally with ˜1.5 U/kg of bleomycin sulfate (Calbiochem, Billerica, Mass.). Briefly, for oropharyngeal administration of bleomycin, mice or rats are anesthetized with isofluorane and then suspended on its back at a˜60 degree angle on an inclined surface with a rubber band running under the upper incisors. The airway is opened while securing the tongue with one arm of padded forceps and bleomycin is administered into the back of the oral cavity with a syringe. The animal's tongue and mouth were held open until the liquid disappeared from the oral cavity. The animal was then returned to its cage and monitored until fully recovered from the anesthesia. The study is terminated on day 14-28 for oropharyngeally administered bleomycin in mice and rats. All animals are euthanized at the termination of the studies by cervical dislocation for gross necropsy, and blood collected by cardiac puncture. The lungs from each animal are dissected from the animal and weighed. The BAL cells and fluid are collected by lavaging the lung twice with 0.5 ml Hanks Balanced Salt Solution (HBSS; VWR, Radnor, Pa.). After collection of BAL cells and fluid, lungs are dissected and removed from each animal. Whole lungs are inflated with 10% NBF and then fixed in 10% NBF for histology. Severity of fibrosis in the lungs is evaluated using a modified Ashcroft score (Hubner, Biotechniques, 2008) and subjective fibrosis scores. Lung sections were graded by averaging 5 microscopic fields at 20× on an Ashcroft scale as follows: Grade 0=normal lung; Grade 1=minimally detectable thickening of alveolar walls; Grade 2=Mild thickening of alveolar walls. Grade 3=moderate contiguous thickening of walls with fibrous nodules; Grade 4=Thickened septae and confluent fibrotic masses that total less than 10% of microscopic field. Grade 5=increased fibrosis with definite damage to lung structure and formation of fibrous bands or small fibrous masses between 10 and 50% of microscopic field; Grade 6=Large contiguous fibrotic masses consolidating more than 50% of microscopic field. Grade 7=severe distortion of structure and large fibrous areas; Grade 8=total fibrous obliteration of lung within microscopic field. Each slide was examined at 20× magnification and the score for 5 separate representative fields was averaged for each animal. Subjective scores (H&E and Trichrome-stained slides) were evaluated at 2× magnification for an overall assessment of pathologic change. A score of 0=no detectible findings to 5=complete involvement of consolidation. Scores in each group were averaged and standard error was calculated using Excel 2010. Dense, organized inflammatory exudates were scored as fibrosis. Other tissues were evaluated microscopically and scored routinely.

SMILES: Cc1ccc(=O)n(-c2ccccc2)c1 [pirfenidone, reference compound]
- % reduction compared to vehicle: −14%
